Data reported in publication PMC8294059, “Identification and Immune Assessment of T Cell Epitopes in Five Plasmodium falciparum Blood Stage Antigens to Facilitate Vaccine Candidate Selection and Optimization” (Frontiers in Immunology, 2021).
Where a SMILES comes first, the peptide text is derived from it.

molecular target: HLA-B*0702 (Homo sapiens, UniProt P01889); test: In vitro class I HLA binding assay (fluorescence polarization competition); conditions: allele B*0702; fluorescence polarization competition; read-out: IC50 (nM), in vitro HLA binding affinity
Method: A cell-free class I HLA binding assay that allows for in vitro quantification of peptide-HLA binding affinity in a competition format was used. In this assay, a fluorescently labeled, high binding, control peptide is loaded onto 384-well ½-area plates along with unlabeled experimental peptides. To remove endogenous peptides and render the HLA A and B molecules receptive to binding, HLA is heated at 53°C for 15 minutes and immediately added to the assay. The mixture is then allowed to stand for three days. […] Binding of experimental peptides is expressed as the percent inhibition of the labeled control peptide (experimental fluorescence / control fluorescence, multiplied by 100). The percent inhibition values for each experimental peptide (across a range of molar concentrations) are used to calculate the concentration which inhibits 50% of the labeled control peptide’s specific binding. This value is referred to as the peptide’s IC50.

Row | SMILES | IC50
1 | CC[C@H](C)[C@H](NC(=O)[C@H](Cc1ccc(O)cc1)NC(=O)[C@@H]1CCCN1C(=O)[C@@H](N)CCCNC(=N)N)C(=O)N[C@@H](CO)C(=O)N[C@@H](CCCCN)C(=O)N[C@@H](CC(N)=O)C(=O)N[C@@H](CC(=O)O)C(=O)N[C@@H](CC(C)C)C(=O)O [CYRPA_229] (H-RPYISKNDL-OH) | 244 nM
2 | C[C@H](NC(=O)[C@@H](NC(=O)[C@@H](NC(=O)[C@H](CC(N)=O)NC(=O)CNC(=O)[C@H](Cc1ccc(O)cc1)NC(=O)[C@H](CCCCN)NC(=O)[C@H](CCC(=O)O)NC(=O)[C@@H]1CCCN1C(=O)[C@@H](N)CCCCN)[C@@H](C)O)[C@@H](C)O)C(=O)O [CYRPA_316] (H-KPEKYGNTTA-OH) | 836000 nM
3 | CC(C)C[C@H](NC(=O)[C@H](CC(=O)O)NC(=O)[C@H](CC(N)=O)NC(=O)[C@H](CCCCN)NC(=O)[C@H](CCCCN)NC(=O)[C@H](CCCCN)NC(=O)[C@H](CC(N)=O)NC(=O)[C@H](CO)NC(=O)[C@@H]1CCCN1C(=O)[C@@H](N)[C@@H](C)O)C(=O)O [RH5_286] (H-TPSNKKKNDL-OH) | 1880 nM
4 | CC[C@H](C)[C@H](N)C(=O)N[C@H](C(=O)N[C@@H](CO)C(=O)N[C@@H](CC(=O)O)C(=O)N[C@@H](Cc1c[nH]cn1)C(=O)N[C@@H](CC(C)C)C(=O)N[C@@H](CCCNC(=N)N)C(=O)N[C@@H](CCC(N)=O)C(=O)N[C@@H](CCSC)C(=O)O)[C@@H](C)O [RH5_470] (H-ITSDHLRQM-OH) | 183000 nM
5 | CSCC[C@H](NC(=O)[C@H](CCC(=O)O)NC(=O)[C@H](CC(N)=O)NC(=O)[C@H](CCC(=O)O)NC(=O)[C@H](CCC(N)=O)NC(=O)[C@H](CC(C)C)NC(=O)[C@H](CC(N)=O)NC(=O)[C@H](CC(C)C)NC(=O)[C@@H]1CCCN1C(=O)[C@@H](N)CO)C(=O)O [RIPR_0246] (H-SPLNLQENEM-OH) | 22400 nM
6 | CC(C)C[C@H](NC(=O)[C@@H](NC(=O)[C@H](CO)NC(=O)[C@H](CCC(=O)O)NC(=O)[C@H](CS)NC(=O)[C@H](CC(=O)O)NC(=O)[C@H](CC(N)=O)NC(=O)[C@@H]1CCCN1C(=O)[C@@H](N)CCCNC(=N)N)C(C)C)C(=O)O [RIPR_0676] (H-RPNDCESVL-OH) | 377 nM
7 | CC(C)C[C@H](NC(=O)[C@H](CC(N)=O)NC(=O)[C@H](CCC(=O)O)NC(=O)[C@H](CCCCN)NC(=O)[C@H](CS)NC(=O)[C@@H](NC(=O)[C@H](CS)NC(=O)[C@H](CCC(=O)O)NC(=O)[C@@H]1CCCN1C(=O)[C@@H](N)CCCCN)C(C)C)C(=O)O [RIPR_0836] (H-KPECVCKENL-OH) | 206000 nM

molecular target: HLA-DRB1*1301 (Homo sapiens, UniProt P01903+P01911, A100E/A169T/K41T/L162R/M171V/P40S/Q125H/Q178H/Q39Y/Q99D/R42S/S66N/T262R/W38E/Y61H); test: biochemical; type: binding; conditions: binding inhibition assay; NB = non-binder (no dose-dependent inhibition); read-out: DRB1*1301 IC50
Procedure, shortened: (§1)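 HLA-peptide complexes are captured with anti-HLA-DR antibody, and bound reference is quantified by europium-probe time-resolved fluorescence.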

Row | SMILES | IC50
8 | CC[C@H](C)[C@H](NC(=O)[C@H](CCCCN)NC(=O)[C@H](CCCCN)NC(=O)[C@H](CCCCN)NC(=O)[C@H](CC(C)C)NC(=O)[C@H](Cc1ccc(O)cc1)NC(=O)[C@@H](NC(=O)[C@@H](NC(=O)[C@@H](NC(=O)[C@H](Cc1c[nH]cn1)NC(=O)[C@H](Cc1ccccc1)NC(=O)[C@@H](NC(=O)[C@H](CCC(=O)O)NC(=O)[C@H](CC(N)=O)NC(C)=O)[C@@H](C)CC)[C@@H](C)O)[C@@H](C)CC)[C@@H](C)CC)C(=O)NCC(=O)N[C@@H](CC(N)=O)C(=O)N[C@@H](CO)C(=O)N[C@H](C(=O)N[C@H](C(=O)N[C@@H](Cc1ccc(O)cc1)C(=O)N[C@@H](CC(=O)O)C(N)=O)[C@@H](C)CC)C(C)C [RIPR_019] (Ac-NEIFHTIIYLKKKIGNSVIYD-NH2) | 3.49 µM

molecular target: HLA-DRB1*0701 (Homo sapiens, UniProt P01903+P01911, A100R/A102G/A103Q/D57E/D86V/E43K/F76Y/K127E/L162R/M171V/P40G/Q125H/Q99D/R33Q/R42Y/R54Q/S133A/S66F/T210M/V115G/Y107V/Y59L/Y89S); test: biochemical; type: binding; conditions: binding inhibition assay; NB = non-binder (no dose-dependent inhibition); read-out: DRB1*0701 IC50
Procedure, shortened: as §1

Row | SMILES | IC50
9 | CC[C@H](C)[C@H](NC(=O)[C@H](CCCCN)NC(=O)[C@H](CCCCN)NC(=O)[C@H](CCCCN)NC(=O)[C@H](CC(C)C)NC(=O)[C@H](Cc1ccc(O)cc1)NC(=O)[C@@H](NC(=O)[C@@H](NC(=O)[C@@H](NC(=O)[C@H](Cc1c[nH]cn1)NC(=O)[C@H](Cc1ccccc1)NC(=O)[C@@H](NC(=O)[C@H](CCC(=O)O)NC(=O)[C@H](CC(N)=O)NC(C)=O)[C@@H](C)CC)[C@@H](C)O)[C@@H](C)CC)[C@@H](C)CC)C(=O)NCC(=O)N[C@@H](CC(N)=O)C(=O)N[C@@H](CO)C(=O)N[C@H](C(=O)N[C@H](C(=O)N[C@@H](Cc1ccc(O)cc1)C(=O)N[C@@H](CC(=O)O)C(N)=O)[C@@H](C)CC)C(C)C [RIPR_019] (Ac-NEIFHTIIYLKKKIGNSVIYD-NH2) | 3.86 µM

molecular target: T1, HLA-DRB1*0401 (Homo sapiens, UniProt P01903+P01911, A100K/A169T/F76Y/I96L/K127E/L162R/M171V/N62H/P40V/Q125Y/R42H/S133A/S149N/S66Y/V115G/V209L/W38E); test: biochemical; type: binding; conditions: binding inhibition assay; NB = non-binder (no dose-dependent inhibition); read-out: DRB1*0401 IC50
T1 construct: purchased
Procedure, shortened: as §1

Row | SMILES | IC50
10 | CC[C@H](C)[C@H](NC(=O)[C@H](CCCCN)NC(=O)[C@H](CCCCN)NC(=O)[C@H](CCCCN)NC(=O)[C@H](CC(C)C)NC(=O)[C@H](Cc1ccc(O)cc1)NC(=O)[C@@H](NC(=O)[C@@H](NC(=O)[C@@H](NC(=O)[C@H](Cc1c[nH]cn1)NC(=O)[C@H](Cc1ccccc1)NC(=O)[C@@H](NC(=O)[C@H](CCC(=O)O)NC(=O)[C@H](CC(N)=O)NC(C)=O)[C@@H](C)CC)[C@@H](C)O)[C@@H](C)CC)[C@@H](C)CC)C(=O)NCC(=O)N[C@@H](CC(N)=O)C(=O)N[C@@H](CO)C(=O)N[C@H](C(=O)N[C@H](C(=O)N[C@@H](Cc1ccc(O)cc1)C(=O)N[C@@H](CC(=O)O)C(N)=O)[C@@H](C)CC)C(C)C [RIPR_019] (Ac-NEIFHTIIYLKKKIGNSVIYD-NH2) | 3.03 µM

molecular target: T2, HLA-DRB1*0101 (Homo sapiens, UniProt P01903+P01911, A100R/D57E/F55L/F60I/F76Y/I96L/L162R/M171V/P40L/Q125E/R42F/V115G/Y59C); test: biochemical; type: binding; conditions: binding inhibition assay; NB = non-binder (no dose-dependent inhibition); read-out: DRB1*0101 IC50
T2 construct: purchased
Procedure, shortened: as §1

Row | SMILES | IC50
11 | CC[C@H](C)[C@H](NC(=O)[C@H](CCCCN)NC(=O)[C@H](CCCCN)NC(=O)[C@H](CCCCN)NC(=O)[C@H](CC(C)C)NC(=O)[C@H](Cc1ccc(O)cc1)NC(=O)[C@@H](NC(=O)[C@@H](NC(=O)[C@@H](NC(=O)[C@H](Cc1c[nH]cn1)NC(=O)[C@H](Cc1ccccc1)NC(=O)[C@@H](NC(=O)[C@H](CCC(=O)O)NC(=O)[C@H](CC(N)=O)NC(C)=O)[C@@H](C)CC)[C@@H](C)O)[C@@H](C)CC)[C@@H](C)CC)C(=O)NCC(=O)N[C@@H](CC(N)=O)C(=O)N[C@@H](CO)C(=O)N[C@H](C(=O)N[C@H](C(=O)N[C@@H](Cc1ccc(O)cc1)C(=O)N[C@@H](CC(=O)O)C(N)=O)[C@@H](C)CC)C(C)C [RIPR_019] (Ac-NEIFHTIIYLKKKIGNSVIYD-NH2) | 0.346 µM

molecular target: T3, HLA-DRB1*1501 (Homo sapiens, UniProt P01903+P01911); test: biochemical; type: binding; conditions: binding inhibition assay; NB = non-binder (no dose-dependent inhibition); read-out: DRB1*1501 IC50
T3 construct: purchased
Procedure, shortened: as §1

Row | SMILES | IC50
12 | CC[C@H](C)[C@H](NC(=O)[C@H](CCCCN)NC(=O)[C@H](CCCCN)NC(=O)[C@H](CCCCN)NC(=O)[C@H](CC(C)C)NC(=O)[C@H](Cc1ccc(O)cc1)NC(=O)[C@@H](NC(=O)[C@@H](NC(=O)[C@@H](NC(=O)[C@H](Cc1c[nH]cn1)NC(=O)[C@H](Cc1ccccc1)NC(=O)[C@@H](NC(=O)[C@H](CCC(=O)O)NC(=O)[C@H](CC(N)=O)NC(C)=O)[C@@H](C)CC)[C@@H](C)O)[C@@H](C)CC)[C@@H](C)CC)C(=O)NCC(=O)N[C@@H](CC(N)=O)C(=O)N[C@@H](CO)C(=O)N[C@H](C(=O)N[C@H](C(=O)N[C@@H](Cc1ccc(O)cc1)C(=O)N[C@@H](CC(=O)O)C(N)=O)[C@@H](C)CC)C(C)C [RIPR_019] (Ac-NEIFHTIIYLKKKIGNSVIYD-NH2) | 0.898 µM

molecular target: HLA-DRB1*0801 (Homo sapiens, UniProt P01903+P01911, A100R/A103L/A169T/D86S/F76Y/H45Y/I96F/K41T/L162R/M171V/P40S/Q125H/Q178H/Q39Y/Q99D/R218S/R42G/S66Y/V115G/W38E); test: biochemical; type: binding; conditions: binding inhibition assay; NB = non-binder (no dose-dependent inhibition); read-out: DRB1*0801 IC50
Procedure, shortened: as §1

Row | SMILES | IC50
13 | CC[C@H](C)[C@H](NC(=O)[C@H](CCCCN)NC(=O)[C@H](CCCCN)NC(=O)[C@H](CCCCN)NC(=O)[C@H](CC(C)C)NC(=O)[C@H](Cc1ccc(O)cc1)NC(=O)[C@@H](NC(=O)[C@@H](NC(=O)[C@@H](NC(=O)[C@H](Cc1c[nH]cn1)NC(=O)[C@H](Cc1ccccc1)NC(=O)[C@@H](NC(=O)[C@H](CCC(=O)O)NC(=O)[C@H](CC(N)=O)NC(C)=O)[C@@H](C)CC)[C@@H](C)O)[C@@H](C)CC)[C@@H](C)CC)C(=O)NCC(=O)N[C@@H](CC(N)=O)C(=O)N[C@@H](CO)C(=O)N[C@H](C(=O)N[C@H](C(=O)N[C@@H](Cc1ccc(O)cc1)C(=O)N[C@@H](CC(=O)O)C(N)=O)[C@@H](C)CC)C(C)C [RIPR_019] (Ac-NEIFHTIIYLKKKIGNSVIYD-NH2) | 1.35 µM

molecular target: HLA-DRB1*1101 (Homo sapiens, UniProt P01903+P01911, A100R/A169T/A87E/I96F/K41T/L162R/M171V/P40S/Q125H/Q178H/Q39Y/Q99D/R42S/S66Y/T262R/V115G/W38E); test: biochemical; type: binding; conditions: binding inhibition assay; NB = non-binder (no dose-dependent inhibition); read-out: DRB1*1101 IC50
Procedure, shortened: as §1

Row | SMILES | IC50
14 | CC[C@H](C)[C@H](NC(=O)[C@H](CCCCN)NC(=O)[C@H](CCCCN)NC(=O)[C@H](CCCCN)NC(=O)[C@H](CC(C)C)NC(=O)[C@H](Cc1ccc(O)cc1)NC(=O)[C@@H](NC(=O)[C@@H](NC(=O)[C@@H](NC(=O)[C@H](Cc1c[nH]cn1)NC(=O)[C@H](Cc1ccccc1)NC(=O)[C@@H](NC(=O)[C@H](CCC(=O)O)NC(=O)[C@H](CC(N)=O)NC(C)=O)[C@@H](C)CC)[C@@H](C)O)[C@@H](C)CC)[C@@H](C)CC)C(=O)NCC(=O)N[C@@H](CC(N)=O)C(=O)N[C@@H](CO)C(=O)N[C@H](C(=O)N[C@H](C(=O)N[C@@H](Cc1ccc(O)cc1)C(=O)N[C@@H](CC(=O)O)C(N)=O)[C@@H](C)CC)C(C)C [RIPR_019] (Ac-NEIFHTIIYLKKKIGNSVIYD-NH2) | 0.066 µM
